Columns and labels:
[1] = Blood tests on the horses on the days of the race (Table 1); type: in vivo, horse
Experimental: The apparatus 10 was used in a confidential trial to treat five horses taking part in an endurance race. The five horses were called Moniq, Shamon, Pauli, Viola and Ophelia. During treatment, the average temperature inside the enclosure 22 was between 42° C. and 45° C. and an oxygen flow rate of 1 l/min was supplied to the ozonator 52. During treatment, the average heart-rate for the non-accustomed horses was 42 beats per minute. The superficial skin temperature measured on the neck and the point of the shoulder of the horses was 39° C. in each case.
Table 1 provides information on the blood tests conducted on the five horses, on the days of the race as indicated.

[2] = Blood oxygen tests immediately before and after transdermal ozone therapy (Table 2); type: in vivo, horse; conditions: for PO2 / SO2: post-treat (immediately after therapy); for K+ blood concentration / Na+ blood concentration: post-treat; for K+ blood concentration: normal range 5.3-3.0; for Na+ blood concentration: normal range 150.0-133.0
Experimental: Blood tests were also conducted for three horses to determine when transdermal ozone therapy should be provided. The horses were Shamon, Pauli and Sinbad. The blood tests were conducted immediately before transdermal ozone therapy and immediately thereafter. For the horse Shamon, blood tests were also conducted 12 hours and 24 hours after transdermal ozone therapy.

[3] = horse Pauli, race day 2, pre-treated before race
[4] = horse Shamon, race day 3, treated day 2
[5] = horse Viola, race day 2, treated days 1 and 2, day 1 value 40

## O=[O+][O-] [ozone]
[1]; [3]
  PCT: 0.05%
  PDW: 33.8
  PLT = platelets: 1.1e+11 L⁻¹
  RBC = red blood cell count: 1.05e+13 L⁻¹
  RDWc: 21.9%
  TBIL = total biliruben: 96 µmol/L
  TP = total protein: 79 gram/liter
  WBC = white blood cell count: 1.98e+10 L⁻¹
[1]; [4]
  ALB = albumin: 31 gram/liter
  AST = aspertate amino transferase: 722 Units/liter
  BUN = blood urea nitrogen: 9 mmol/L
  CA++ = calcium: 2.76 mmol/L
  CK = creatine kinase: 1450 International Units/liter
  CRE = creatinine: 122 µmol/L
  GGT = gamma glutamiel transferase: 27 Units/liter
  GLOB = globulin: 35 gram/liter
  GLU = glucose: 6.3 mmol/L
  GR % = granulocytes percentage: 78.4%
  GRA = granulocytes: 1.24e+10 L⁻¹
  HB = hemoglobin: 11.9 d/deciliter
  K+ = potassium: 3.8 mmol/L
  LY % = lymphocytes percentage: 16.4%
  LYM = lymphocytes: 2.59e+09 L⁻¹
  MCH = mean corpuscular hemoglobin: 15.8 pg
  MCHC = mean corpuscular hemoglobin concentration: 39.3 gram/deciliter
  MCV = mean corpuscular volume: 40 femtoliter
  MON % = monocytes percentage: 5.2%
  MON = monocytes: 8.2e+08 L⁻¹
  Na+ = sodium: 138 mmol/L
  PCT: 0.06%
  PDW: 35.8
  PLT = platelets: 1.02e+11 L⁻¹
  RBC = red blood cell count: 7.56e+12 L⁻¹
  RDWc: 22.1%
  TBIL = total biliruben: 52 µmol/L
  TP = total protein: 66 gram/liter
  WBC = white blood cell count: 1.58e+10 L⁻¹
[1]; horse Viola, race day 2, treated days 1 and 2, day 1 value 0.09
  PCT: 0.05%
[1]; horse Viola, race day 2, treated days 1 and 2, day 1 value 0.64
  MON = monocytes: 5.6e+08 L⁻¹
[1]; horse Viola, race day 2, treated days 1 and 2, day 1 value 1.34
  LYM = lymphocytes: 2.14e+09 L⁻¹
[1]; horse Viola, race day 2, treated days 1 and 2, day 1 value 2.9
  GLU = glucose: 5.7 mmol/L
[1]; horse Viola, race day 2, treated days 1 and 2, day 1 value 2.97
  CA++ = calcium: 2.88 mmol/L
[1]; horse Viola, race day 2, treated days 1 and 2, day 1 value 4.3
  MON % = monocytes percentage: 4.3%
[1]; horse Viola, race day 2, treated days 1 and 2, day 1 value 5.1
  K+ = potassium: 3.7 mmol/L
[1]; horse Viola, race day 2, treated days 1 and 2, day 1 value 8.9
  LY % = lymphocytes percentage: 16.3%
[1]; horse Viola, race day 2, treated days 1 and 2, day 1 value 9
  BUN = blood urea nitrogen: 9 mmol/L
[1]; horse Viola, race day 2, treated days 1 and 2, day 1 value 9.73
  RBC = red blood cell count: 9.03e+12 L⁻¹
[1]; horse Viola, race day 2, treated days 1 and 2, day 1 value 13.0
  GRA = granulocytes: 1.04e+10 L⁻¹
[1]; horse Viola, race day 2, treated days 1 and 2, day 1 value 15.0
  WBC = white blood cell count: 1.31e+10 L⁻¹
[1]; horse Viola, race day 2, treated days 1 and 2, day 1 value 15.2
  HB = hemoglobin: 14.4 d/deciliter
[1]; horse Viola, race day 2, treated days 1 and 2, day 1 value 15.7
  MCH = mean corpuscular hemoglobin: 16.0 pg
[1]; horse Viola, race day 2, treated days 1 and 2, day 1 value 17
  GGT = gamma glutamiel transferase: 18 Units/liter
[1]; horse Viola, race day 2, treated days 1 and 2, day 1 value 22.4
  RDWc: 22.6%
[1]; horse Viola, race day 2, treated days 1 and 2, day 1 value 34
  ALB = albumin: 30 gram/liter
[1]; horse Viola, race day 2, treated days 1 and 2, day 1 value 35.8
  PDW: 31.0
[1]; horse Viola, race day 2, treated days 1 and 2, day 1 value 39.4
  MCHC = mean corpuscular hemoglobin concentration: 39.0 gram/deciliter
[1]; [5]
  GLOB = globulin: 39 gram/liter
  MCV = mean corpuscular volume: 41 femtoliter
[1]; horse Viola, race day 2, treated days 1 and 2, day 1 value 41
  TBIL = total biliruben: 48 µmol/L
[1]; horse Viola, race day 2, treated days 1 and 2, day 1 value 75
  TP = total protein: 69 gram/liter
[1]; horse Viola, race day 2, treated days 1 and 2, day 1 value 86.8
  GR % = granulocytes percentage: 79.4%
[1]; horse Viola, race day 2, treated days 1 and 2, day 1 value 131
  CRE = creatinine: 99 µmol/L
[1]; horse Viola, race day 2, treated days 1 and 2, day 1 value 144
  Na+ = sodium: 138 mmol/L
[1]; horse Viola, race day 2, treated days 1 and 2, day 1 value 146
  PLT = platelets: 9.9e+10 L⁻¹
[1]; horse Viola, race day 2, treated days 1 and 2, day 1 value 5896
  CK = creatine kinase: 1599 International Units/liter
[1]; horse Viola, race day 2, treated days 1 and 2, day 1 value >2000
  AST = aspertate amino transferase: 1814 Units/liter
[2]; horse Pauli, pre-treat 39.30
  PO2: 49.20 mmHg
[2]; horse Pauli, pre-treat 80.30
  SO2: 87.10%
[2]; horse Pauli, pre-treat 3.73
  K+ blood concentration: 4.37 mmol/L
[2]; horse Pauli, pre-treat 143.00
  Na+ blood concentration: 144.30 mmol/L
[2]; horse Shamon, pre-treat 40.00
  PO2: 52.70 mmHg
[2]; horse Shamon, pre-treat 74.60
  SO2: 90.50%
[2]; horse Shamon, pre-treat 3.41
  K+ blood concentration: 4.09 mmol/L
[2]; horse Shamon, pre-treat 136.00
  Na+ blood concentration: 148.30 mmol/L
[2]; horse Sinbad, pre-treat 35.90
  PO2: 48.00 mmHg
[2]; horse Sinbad, pre-treat 70.60
  SO2: 86.40%
[2]; horse Sinbad, pre-treat 3.49
  K+ blood concentration: 3.04 mmol/L
[2]; horse Sinbad, pre-treat 147.40
  Na+ blood concentration: 150.20 mmol/L
[2]; horses Shamon, Pauli, Sinbad
  dehydration effect of transdermal ozone therapy: no dehydration effect
[2]; horses Shamon, Pauli, Sinbad, before and after therapy
  Na+, K+ and Cl- blood concentrations versus normal ranges: remained within normal ranges
